In patent publication US20250296953A1, “3,4-THIAZOLO-STEROIDS AND METHODS OF MAKING AND USING THE SAME” (Arkansas State University - Jonesboro, priority 2018, published 2025):
Read-outs that look alike come from different tables or passages of the source.

Experiments:
[1] = system: gliosarcoma (SF-539); assay: NCI 60 five dose screen
[2] = system: 60 different human tumor cell lines; assay: cells

`C[C@]12CCc3sc(Nc4cccc(O)c4)nc3C1=CC[C@@H]1[C@@H]2CC[C@]2(C)C(=O)CC[C@@H]12` [IIa.17, (1S,2R,13R,14S,18S)-7-(3-hydroxyanilino)-2,18-dimethyl-6-thia-8-azapentacyclo[11.7.0.02,10.05,9.014,18]icosa-5(9),7,10-trien-17-one] gave a GI50 ([1]; Homo sapiens, SF-539) of 3.04 µM, a CC50 ([1]; Homo sapiens, SF-539, read-out: LC50) of 79.9 µM and a TGI ([1]; SF-539 (CNS Cancer), five dose) of 1.33E−5. The GI50 ([2]; 60 cell) was 5.52 µM, the CC50 ([2]; 60 cell, read-out: LC50) was > 100 µM and the GI50 ([2]; 786-0) was 3.02 µM. For the same molecule, the CC50 ([2]; 786-0, read-out: LC50) was > 100 µM, the GI50 ([2]; A498) was 28.8 µM and the CC50 ([2]; A498, read-out: LC50) was > 100 µM. The GI50 ([2]; A549) was 26.4 µM, the CC50 ([2]; A549, read-out: LC50) was > 100 µM and the GI50 ([2]; ACHN) was 7.81 µM. The CC50 ([2]; ACHN, read-out: LC50) was > 100 µM, the GI50 ([2]; BT-549) was 4.58 µM and the CC50 ([2]; BT-549, read-out: LC50) was > 100 µM. For the same molecule, the GI50 ([2]; CAKI-1) was 13 µM, the CC50 ([2]; CAKI-1, read-out: LC50) was 70 µM and the GI50 ([2]; CCRF-CEM) was 2.84 µM. The CC50 ([2]; CCRF-CEM, read-out: LC50) was > 100 µM, the GI50 ([2]; COLO 205) was 12.3 µM and the CC50 ([2]; COLO 205, read-out: LC50) was > 100 µM. The GI50 ([2]; DU-145) was 4.34 µM, the CC50 ([2]; DU-145, read-out: LC50) was > 100 µM and the GI50 ([2]; EKVX) was 28.8 µM. For the same molecule, the CC50 ([2]; EKVX, read-out: LC50) was > 100 µM, the GI50 ([2]; HCC 2998) was 18.2 µM and the CC50 ([2]; HCC 2998, read-out: LC50) was > 100 µM. The GI50 ([2]; HCT-15) was 2.53 µM, the CC50 ([2]; HCT-15, read-out: LC50) was > 100 µM and the GI50 ([2]; HCT-116) was 1.91 µM. For the same molecule, the CC50 ([2]; HCT-116, read-out: LC50) was 9.09 µM, the GI50 ([2]; HOP-62) was 22.4 µM and the CC50 ([2]; HOP-62, read-out: LC50) was > 100 µM. It also gave a GI50 ([2]; HOP-92) of 18.7 µM, a GI50 ([2]; HT-29) of 3.9 µM and a CC50 ([2]; HT-29, read-out: LC50) of 75.2 µM. For the same molecule, the GI50 ([2]; Hs-578T) was 12 µM, the CC50 ([2]; Hs-578T, read-out: LC50) was > 100 µM and the GI50 ([2]; IGROV-1) was 8.21 µM. The CC50 ([2]; IGROV-1, read-out: LC50) was > 100 µM, the GI50 ([2]; K562) was 2.79 µM and the CC50 ([2]; K562, read-out: LC50) was > 100 µM. It also gave a GI50 ([2]; KM12) of 8.27 µM, a CC50 ([2]; KM12, read-out: LC50) of 94.7 µM and a GI50 ([2]; LOX IMVI) of 3.22 µM. For the same molecule, the CC50 ([2]; LOX IMVI, read-out: LC50) was 48.1 µM, the GI50 ([2]; M14) was 7.88 µM and the CC50 ([2]; M14, read-out: LC50) was > 100 µM. For the same molecule, the GI50 ([2]; MCF7) was 3.85 µM, the CC50 ([2]; MCF7, read-out: LC50) was > 100 µM and the GI50 ([2]; MDA-MB-231) was 13.4 µM. The CC50 ([2]; MDA-MB-231, read-out: LC50) was > 100 µM, the GI50 ([2]; MDA-MB-435) was 3.49 µM and the CC50 ([2]; MDA-MB-435, read-out: LC50) was > 100 µM. For the same molecule, the GI50 ([2]; MDA-MB-468) was 3.59 µM, the CC50 ([2]; MDA-MB-468, read-out: LC50) was 54.7 µM and the GI50 ([2]; MOLT-4) was 2.84 µM. For the same molecule, the CC50 ([2]; MOLT-4, read-out: LC50) was ≥ 100 µM, the GI50 ([2]; Malme-3M) was 21.2 µM and the CC50 ([2]; Malme-3M, read-out: LC50) was > 100 µM. The GI50 ([2]; NCI-H23) was 18.1 µM, the CC50 ([2]; NCI-H23, read-out: LC50) was > 100 µM and the GI50 ([2]; NCI-H226) was 7.36 µM. For the same molecule, the CC50 ([2]; NCI-H226, read-out: LC50) was > 100 µM, the GI50 ([2]; NCI-H322M) was 50.5 µM and the CC50 ([2]; NCI-H322M, read-out: LC50) was > 100 µM. For the same molecule, the GI50 ([2]; NCI-H460) was 4.65 µM, the CC50 ([2]; NCI-H460, read-out: LC50) was > 100 µM and the GI50 ([2]; NCI-H522) was 6.6 µM. The CC50 ([2]; NCI-H522, read-out: LC50) was 69.3 µM, the GI50 ([2]; NCI/ADR-RES) was 6.34 µM and the CC50 ([2]; NCI/ADR-RES, read-out: LC50) was > 100 µM. The GI50 ([2]; OVCAR-3) was 4.41 µM, the CC50 ([2]; OVCAR-3, read-out: LC50) was > 100 µM and the GI50 ([2]; OVCAR-4) was 18.9 µM. For the same molecule, the CC50 ([2]; OVCAR-4, read-out: LC50) was > 100 µM, the GI50 ([2]; OVCAR-5) was 24.5 µM and the CC50 ([2]; OVCAR-5, read-out: LC50) was > 100 µM. For the same molecule, the GI50 ([2]; OVCAR-8) was 7.61 µM, the CC50 ([2]; OVCAR-8, read-out: LC50) was > 100 µM and the GI50 ([2]; RXF 393) was 3.18 µM. For the same molecule, the CC50 ([2]; RXF 393, read-out: LC50) was 48.9 µM, the GI50 ([2]; SF-268) was 5.95 µM and the CC50 ([2]; SF-268, read-out: LC50) was > 100 µM. The GI50 ([2]; SK-MEL-2) was 17.1 µM, the CC50 ([2]; SK-MEL-2, read-out: LC50) was > 100 µM and the GI50 ([2]; SK-MEL-5) was 10.2 µM. For the same molecule, the CC50 ([2]; SK-MEL-5, read-out: LC50) was 62.5 µM, the GI50 ([2]; SK-MEL-28) was 20.5 µM and the CC50 ([2]; SK-MEL-28, read-out: LC50) was > 100 µM. The GI50 ([2]; SK-OV-3) was 34 µM, the CC50 ([2]; SK-OV-3, read-out: LC50) was > 100 µM and the GI50 ([2]; SN12C) was 3.81 µM. The CC50 ([2]; SN12C, read-out: LC50) was > 100 µM, the GI50 ([2]; SNB-19) was 12.9 µM and the CC50 ([2]; SNB-19, read-out: LC50) was > 100 µM. For the same molecule, the GI50 ([2]; SNB-75) was 5.4 µM, the CC50 ([2]; SNB-75, read-out: LC50) was > 100 µM and the GI50 ([2]; SW-620) was 3.38 µM. For the same molecule, the CC50 ([2]; SW-620, read-out: LC50) was > 100 µM, the GI50 ([2]; T47D) was 3.5 µM and the CC50 ([2]; T47D, read-out: LC50) was > 100 µM. For the same molecule, the GI50 ([2]; TK-10) was 7.47 µM, the CC50 ([2]; TK-10, read-out: LC50) was > 100 µM and the GI50 ([2]; U-251) was 4.41 µM. For the same molecule, the CC50 ([2]; U-251, read-out: LC50) was 58.6 µM, the GI50 ([2]; UACC-62) was 9.54 µM and the CC50 ([2]; UACC-62, read-out: LC50) was 89.7 µM. For the same molecule, the GI50 ([2]; UACC-257) was 23.8 µM, the CC50 ([2]; UACC-257, read-out: LC50) was > 100 µM and the GI50 ([2]; UO-31) was 5.26 µM. For the same molecule, the CC50 ([2]; UO-31, read-out: LC50) was 49.9 µM.
